What follows are compounds tested against KRAS G12C and cRAF (Ras-binding domain) interaction (Homo sapiens (Human), UniProt P01116, C118S/C51S/C80L/G12C) (assay: Inhibition of KRAS G12C and cRAF binding (AlphaScreen)). Details: GMPPNP-loaded KRAS G12C, 19-20 hours incubation with compound; read-out: IC50 (Inhibition of KRAS G12C and cRAF Binding).
How it was run: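 IC50 values come from 4-parameter nonlinear regression of AlphaScreen signal (680 nm excitation, 570 nm emission). Compound plates sat 19-20 h at room temperature before RBD and donor/acceptor beads were added in Hepes pH 7.4 buffer with 150 mM NaCl, 5 mM MgCl2, 2% DMSO for 60-90 min; biotin-AviTag-GST replaced RBD to flag assay-technology interferers.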

Sequence of KRAS G12C and cRAF (Ras-binding domain) interaction (P01116 other isoform, or with tags, fused parts or gaps G12C/C51S/C80L/C118S): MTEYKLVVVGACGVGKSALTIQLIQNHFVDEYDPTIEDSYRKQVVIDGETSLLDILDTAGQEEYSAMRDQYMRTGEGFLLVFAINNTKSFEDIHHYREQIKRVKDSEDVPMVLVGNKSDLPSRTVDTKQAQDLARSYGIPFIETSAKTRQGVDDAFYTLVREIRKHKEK

Row | IC50 [µM] | Compound
1 | 0.01 to 0.1 | CN(CC1CN(C(=O)/C=C/c2nc(C3COC3)no2)C1)c1nc(OCC23CCCN2CCC3)nc2c(F)c(-c3cccc4cccc(Cl)c34)ncc12 [Example 153, (E)-1-(3-(((7-(8-chloronaphthalen-1-yl)-8-fluoro-2-((tetrahydro-1H-pyrrolizin-7a(5H)-yl)methoxy)pyrido[4,3-d]pyrimidin-4-yl)(methyl)amino)methyl)azetidin-1-yl)-3-(3-(oxetan-3-yl)-1,2,4-oxadiazol-5-yl)prop-2-en-1-one]
2 | < 0.01 | Cc1noc(/C=C/C(=O)N2CC(CN(C)c3nc(OC[C@@]45CCCN4C[C@H](F)C5)nc4c(F)c(-c5cc(O)cc6ccccc56)ncc34)C2)n1 [Example 86, (E)-1-(3-(((8-fluoro-2-(((2R,7aS)-2-fluorotetrahydro-1H-pyrrolizin-7a(5H)-yl)methoxy)-7-(3-hydroxynaphthalen-1-yl)pyrido[4,3-d]pyrimidin-4-yl)(methyl)amino)methyl)azetidin-1-yl)-3-(3-methyl-1,2,4-oxadiazol-5-yl)prop-2-en-1-one]
3 | < 0.01 | CN(c1nc(OC[C@@]23CCCN2C[C@H](F)C3)nc2c1CCN(c1cccc3cccc(Cl)c13)C2)[C@@H]1CCN(C(=O)/C=C/c2nc(C3COC3)no2)C1 [Example 154, (E)-1-((R)-3-((7-(8-chloronaphthalen-1-yl)-2-(((2R,7aS)-2-fluorohexahydro-1H-pyrrolizin-7a-yl)methoxy)-5,6,7,8-tetrahydropyrido[3,4-d]pyrimidin-4-yl)(methyl)amino)pyrrolidin-1-yl)-3-(3-(oxetan-3-yl)-1,2,4-oxadiazol-5-yl)prop-2-en-1-one]
4 | 0.01 to 0.1 | Cc1nccc(/C=C/C(=O)N2CC[C@@H](N(C)c3nc(OC[C@@]45CCCN4C[C@H](F)C5)nc4c(F)c(-c5cccc6ccc(F)c(F)c56)ncc34)C2)n1 [Example 271, (E)-1-((R)-3-((7-(7,8-difluoronaphthalen-1-yl)-8-fluoro-2-(((2R,7aS)-2-fluorotetrahydro-1H-pyrrolizin-7a(5H)-yl)methoxy)pyrido[4,3-d]pyrimidin-4-yl)(methyl)amino)pyrrolidin-1-yl)-3-(2-methylpyrimidin-4-yl)prop-2-en-1-one]
5 | 0.1 to 0.5 | CN(c1nc(OC[C@@]23CCCN2C[C@H](F)C3)nc2c1CCN(c1cccc3cccc(Cl)c13)C2)[C@@H]1CCN(C(=O)/C=C/c2nc(C(C)(C)C)no2)C1 [Example 148, (E)-3-(3-(tert-butyl)-1,2,4-oxadiazol-5-yl)-1-((R)-3-((7-(8-chloronaphthalen-1-yl)-2-(((2R,7aS)-2-fluorohexahydro-1H-pyrrolizin-7a-yl)methoxy)-5,6,7,8-tetrahydropyrido[3,4-d]pyrimidin-4-yl)(methyl)amino)pyrrolidin-1-yl)prop-2-en-1-one]
6 | 0.1 to 0.5 | C/C=C/S(=O)(=O)CCN(C)c1nc(OCC23CCCN2CCC3)nc2c1CCN(c1cccc3cccc(Cl)c13)C2 [Example 54, (E)-7-(8-chloronaphthalen-1-yl)-2-((hexahydro-1H-pyrrolizin-7a-yl)methoxy)-N-methyl-N-(2-(prop-1-en-1-ylsulfonyl)ethyl)-5,6,7,8-tetrahydropyrido[3,4-d]pyrimidin-4-amine]
7 | 0.01 to 0.1 | C=CC(=O)N1CC[C@@H](N(C)c2nc(OC[C@@]34CCCN3C[C@H](F)C4)nc3c(F)c(-c4cccc5ccc(F)c(F)c45)ncc23)C1 [Example 192, 1-((R)-3-((7-(7,8-difluoronaphthalen-1-yl)-8-fluoro-2-(((2R,7aS)-2-fluorotetrahydro-1H-pyrrolizin-7a(5H)-yl)methoxy)pyrido[4,3-d]pyrimidin-4-yl)(methyl)amino)pyrrolidin-1-yl)prop-2-en-1-one]
8 | 0.01 to 0.1 | Cc1nsc(/C=C/C(=O)N2CC[C@@H](N(C)c3nc(OCC45CCCN4CCC5)nc4c(F)c(-c5cccc6cccc(Cl)c56)ncc34)C2)n1 [Example 138, (R,E)-1-(3-((7-(8-chloronaphthalen-1-yl)-8-fluoro-2-((tetrahydro-1H-pyrrolizin-7a(5H)-yl)methoxy)pyrido[4,3-d]pyrimidin-4-yl)(methyl)amino)pyrrolidin-1-yl)-3-(3-methyl-1,2,4-thiadiazol-5-yl)prop-2-en-1-one]
9 | 0.1 to 0.5 | C=CC(=O)N1CC[C@@H](N(C)c2nc(OCC34CCCN3CCC4)nc3c(F)c(-c4cccc5c(F)cc(F)cc45)ncc23)C1 [Example 269, (R)-1-(3-((7-(5,7-difluoronaphthalen-1-yl)-8-fluoro-2-((hexahydro-1H-pyrrolizin-7a-yl)methoxy)pyrido[4,3-d]pyrimidin-4-yl)(methyl)amino)pyrrolidin-1-yl)prop-2-en-1-one]
10 | 0.1 to 0.5 | Cc1ncc(F)c(/C=C/C(=O)N2CC[C@@H](N(C)c3nc(OC[C@@]45CCCN4C[C@H](F)C5)nc4c(F)c(-c5cccc6cccc(Cl)c56)ncc34)C2)n1 [Example 241, (E)-1-((R)-3-((7-(8-chloronaphthalen-1-yl)-8-fluoro-2-(((2R,7aS)-2-fluorotetrahydro-1H-pyrrolizin-7a(5H)-yl)methoxy)pyrido[4,3-d]pyrimidin-4-yl)(methyl)amino)pyrrolidin-1-yl)-3-(5-fluoro-2-methylpyrimidin-4-yl)prop-2-en-1-one]
11 | 0.01 to 0.1 | CN(CC1CN(C(=O)/C=C/[C@H]2CCN2C)C1)c1nc(OC[C@@]23CCCN2C[C@H](F)C3)nc2c(F)c(-c3cccc4cccc(Cl)c34)ncc12 [Example 219, (E)-1-(3-(((7-(8-chloronaphthalen-1-yl)-8-fluoro-2-(((2R,7aS)-2-fluorotetrahydro-1H-pyrrolizin-7a(5H)-yl)methoxy)pyrido[4,3-d]pyrimidin-4-yl)(methyl)amino)methyl)azetidin-1-yl)-3-((R)-1-methylazetidin-2-yl)prop-2-en-1-one]
12 | 0.1 to 0.5 | CN(c1nc(OC[C@@]23CCCN2C[C@H](F)C3)nc2c(F)c(-c3cccc4ccc(F)c(Cl)c34)ncc12)[C@@H]1CCN(C(=O)/C=C/CN2CCOCC2)C1 [Example 96, (E)-1-((R)-3-((7-(8-chloro-7-fluoronaphthalen-1-yl)-8-fluoro-2-(((2R,7aS)-2-fluorotetrahydro-1H-pyrrolizin-7a(5H)-yl)methoxy)pyrido[4,3-d]pyrimidin-4-yl)(methyl)amino)pyrrolidin-1-yl)-4-morpholinobut-2-en-1-one]
13 | 0.01 to 0.1 | CN(CC1CN(C(=O)/C=C/CN2CCOCC2)C1)c1nc(OC[C@@]23CCCN2C[C@H](F)C3)nc2c(F)c(-c3cccc4ccc(F)c(Cl)c34)ncc12 [Example 79, (E)-1-(3-(((7-(8-chloro-7-fluoronaphthalen-1-yl)-8-fluoro-2-(((2R,7aS)-2-fluorotetrahydro-1H-pyrrolizin-7a(5H)-yl)methoxy)pyrido[4,3-d]pyrimidin-4-yl)(methyl)amino)methyl)azetidin-1-yl)-4-morpholinobut-2-en-1-one]
14 | > 0.5 | C[C@@H]1C[C@@H](N(C)c2nc(OC[C@@H]3CCCN3C)nc3c2CCN(c2cccc4cccc(Cl)c24)C3)CN1C#N [Example 38, (2R,4R)-4-((7-(8-chloronaphthalen-1-yl)-2-(((S)-1-methylpyrrolidin-2-yl)methoxy)-5,6,7,8-tetrahydropyrido[3,4-d]pyrimidin-4-yl)(methyl)amino)-2-methylpyrrolidine-1-carbonitrile]
15 | 0.1 to 0.5 | Cc1nccc(/C=C/C(=O)N2CCC[C@@H](Nc3nc(OC[C@@]45CCCN4C[C@H](F)C5)nc4c(F)c(-c5cccc6cccc(Cl)c56)ncc34)C2)n1 [Example 262, (E)-1-((R)-3-((7-(8-chloronaphthalen-1-yl)-8-fluoro-2-(((2R,7aS)-2-fluorotetrahydro-1H-pyrrolizin-7a(5H)-yl)methoxy)pyrido[4,3-d]pyrimidin-4-yl)amino)piperidin-1-yl)-3-(2-methylpyrimidin-4-yl)prop-2-en-1-one]

Row | Compound | IC50 [µM]
16 | C=CC(=O)N1CC(CN(C)c2nc(OC[C@@]34CCCN3C[C@H](F)C4)nc3c(F)c(-c4cc(O)cc5cccc(Cl)c45)ncc23)C1 [Example 97, 1-(3-(((7-(8-chloro-3-hydroxynaphthalen-1-yl)-8-fluoro-2-(((2R,7aS)-2-fluorotetrahydro-1H-pyrrolizin-7a(5H)-yl)methoxy)pyrido[4,3-d]pyrimidin-4-yl)(methyl)amino)methyl)azetidin-1-yl)prop-2-en-1-one] | < 0.01

Same assay, conditions: additional exemplary compounds; KRAS G12C and cRAF binding; read-out: RAF1 RBD IC50

Row | IC50 [µM] | Compound
17 | > 0.5 | C=CC(=O)CCOc1nc(OC[C@@H]2CCCN2C)nc2c1CCN(c1cccc3ccccc13)C2
18 | 0.1 to 0.5 | CN(c1nc(OCC23CCCN2CCC3)nc2c1CCN(c1cccc3cccc(Cl)c13)C2)[C@@H]1CCN(C(=O)/C=C/CN2CC(F)(F)C2)C1
19 | > 0.5 | C=CC(=O)N1CC[C@@H](N(CC(F)(F)F)c2nc(OC[C@@]34CCCN3C[C@H](F)C4)nc3c(F)c(-c4cccc5cccc(Cl)c45)ncc23)C1
20 | 0.01 to 0.1 | C=CC(=O)N1C[C@H](N(C)c2nc(OCC34CCCN3CCC4)nc3c2CCN(c2cccc4cccc(Cl)c24)C3)C[C@H]1C#N
21 | > 0.5 | C=CC(=O)N1CCC[C@@H](N(C)c2nc(OCC34CCCN3CCC4)nc3c(F)c(-c4cccc5cccc(Cl)c45)ncc23)C1
22 | > 0.5 | CN(C)C(=O)/C=C/C(=O)N1CC[C@@H](N(C)c2nc(OCC34CCCN3CCC4)nc3c(F)c(-c4cccc5cccc(Cl)c45)ncc23)C1
23 | 0.01 to 0.1 | C=CC(=O)N1C[C@H](N(C)c2nc(OC[C@@]34CCCN3C[C@H](F)C4)nc3c(F)c(-c4cccc5cccc(Cl)c45)ncc23)C[C@H]1CC#N
24 | > 0.5 | C=CC(=O)N1C[C@H](N(C)c2nc(OCC34CCCN3CCC4)nc3c(F)c(-c4cccc5cccc(Cl)c45)ncc23)[C@H]1C
25 | > 0.5 | CN(c1nc(OCC23CCCN2CCC3)nc2c(F)c(-c3cccc4cccc(Cl)c34)ncc12)[C@@H]1CCN(C(=O)/C=C/c2ncn(C)n2)C1
26 | 0.01 to 0.1 | C=CC(=O)CCN(C)c1nc(OCC2CCN2C)nc2c1CCN(c1cccc3cccc(Cl)c13)C2 (stereo not drawn)
27 | > 0.5 | C=CC(=O)N1CC[C@H]2[C@H]1CCN2c1nc(OC[C@@]23CCCN2C[C@H](F)C3)nc2c1CCN(c1cccc3cccc(Cl)c13)C2

— patent US20250019387A1 (Frontier Medicines Corporation, priority 0001, published 2025)
